Data as given in patent US7897559B2, “Dermatological composition and kit containing avermectin compound for treating dermatological conditions” (priority 2000, dated 2011).

How the values were obtained:
[1] = Safety and tolerability observed in the informal trials of topical ivermectin; type: in vivo, human; conditions: informal clinical trial, topical application, any body locations
From the text: It is known that some of the diseases, such as perioral dermatitis, the skin on the eyelids can be affected. To treat eyelids, a high concentration of the medicine should be avoided to prevent irritation of the eyes.
(§1) Examples 4 to 12 illustrate clinical effectiveness of the method of the present invention.

[2] = test system: transient acantholytic dermatitis, acne miliaris necrotica, acne varioliformis, perioral dermatitis, acneiform eruptions, acne vulgaris, seborrheic dermatitis; experiment: Informal clinical trial of topical ivermectin across the dermatological conditions; type: in vivo, human
From the text: In a preferred embodiment, ivermectin is used because it is readily available commercially. The concentration of ivermectin in the dermatological composition for the purpose of the present invention can be in a broad range from about 0.05% to 8% weight by volume (w/v).
The treatment method using ivermectin dermatological composition for each of these dermatological conditions is similar. Preferably, in an initial treatment of these dermatological conditions the ivermectin dermatological composition can be applied topically from one to several times daily for a period of from about one week to several weeks, to substantially control the condition and clear the lesions. The initial dosage, including frequency of the topical application, ivermectin concentration of the dermatological composition, and the length of the initial treatment period can be determined depending on a specific disease, severity of the disease, and the response of the patient to the medication. For example, acne miliaris necrotica is more difficult to treat, and it frequently requires an initial treatment of three weeks or longer. While perioral dermatitis patients can respond to ivermectin treatment rapidly, and healing of lesions can occur in less than two weeks. After the initial treatment, a maintenance dosage, that has less frequent application, and/or a dermatological composition with less concentration of ivermectin, can be used for maintaining the condition.
as §1

[3] = oral dosage of a moderate ivermectin concentration; cited from earlier work
head lice = conditions: after a single topical application; cited from earlier work
[4] = informal clinical trial, topical application to affected skin

ivermectin
side effects [1]: no side effects observed in any body locations | dermal infection of the affected area [2, 4]: controls dermal infection of the affected area | inflammation of the affected area [2, 4]: controls inflammation of the affected area | itching and skin irritation caused by the conditions [2, 4]: removes itching and skin irritation | lesions [2, 4]: clears up lesions | clinical effectiveness ([2]; lotion or cream, ivermectin concentration as low as 0.075%): clinically effective | safety in human [3]: safe in human, without serious adverse side effects | curative effect on head lice (head lice): absolute curative effect
